Legend:
[1] = tested on: androgenetic alopecia (hair loss); conditions: minoxidil microinjections once a month for four months; cited from earlier work
[2] = tested on: terminal hairs of beard or scalp (alopecia); experiment: Treatment of alopecia: minoxidil delivered to the dermis by tattoo machine; type: in vivo; conditions: 5 wt % minoxidil suspension in PEG 400 by tattoo to dermis, once every 2 months, after 6 months (3 sessions); versus control side with minoxidil in water to saturation; three subjects
Description: A suspension of minoxidil suspension at 5 wt % is created in a PEG 400 vehicle. As a control minoxidil is added to water to saturation. The test and control agents are delivered by tattoo machine to the dermis on independent sides of the face (either beard, eyebrow, or scalp) of the same subject once every 2 months for 6 months (i.e. 3 administrations). Three different subjects were tested. The side that was treated in the beard or scalp had approximately 300% more terminal (thick, strong) hairs per unit area, after 6 months (3 sessions).

psoriatic plaques = experiment: Treatment of psoriasis: methotrexate delivered to the dermal layer by tattoo machine; type: in vivo; conditions: control: 25 mg/ml methotrexate by injection once a month for 9 months
[3] = tested on: basal cell carcinoma (BCC); experiment: Treatment of basal cell carcinoma: vismodegib delivered by tattoo machine

SMILES: Nc1cc(N2CCCCC2)nc(N)[n+]1[O-] [minoxidil]
- side effects noted by the subjects [1]: No side effects were noted by the subjects, besides minor localized pain
- more terminal (thick, strong) hairs per unit area on the treated side [2]: approximately 300%

SMILES: CN(Cc1cnc2nc(N)nc(N)c2n1)c1ccc(C(=O)N[C@@H](CCC(=O)O)C(=O)O)cc1 [methotrexate]
- side effects, control (psoriatic plaques): increased liver enzymes

SMILES: CS(=O)(=O)c1ccc(C(=O)Nc2ccc(Cl)c(-c3ccccn3)c2)c(Cl)c1 [vismodegib]
- side effects, control ([3]; control: vismodegib orally for 6 months): muscle tremors, loss of appetite, reduction of smell and taste
- BCCs resolved, control ([3]; control: vismodegib orally, first 6 months): 50%
- clearance of the BCC ([3]; vismodegib suspension with polyethylene glycol by tattoo machine, once a week for 6 months): 90%
